Measurements published in patent US5445951A, “Regioselective enzymatic deacylation of sucrose esters in anhydrous organic media” (priority 1993, dated 1995).
Several values for one entry are separate records, joined by “and”; a condition that tells them apart may be missing. Equal values may be shown once. Read-outs that look alike come from different tables or passages of the source.

Experiments:
[1] = target: T1, alcalase (Bacillus licheniformis, UniProt P00780); assay: Nucleophile screening for alcalase catalyzed deacetylation of SOA in diisopropyl ether; format: biochemical; conditions: nucleophile 200 mM, peak height ratio 1'-OH / 6'-OH heptaacetate
T1 construct: purchased Novo Nordisk (gift)
T1 sequence (P00780 106-379): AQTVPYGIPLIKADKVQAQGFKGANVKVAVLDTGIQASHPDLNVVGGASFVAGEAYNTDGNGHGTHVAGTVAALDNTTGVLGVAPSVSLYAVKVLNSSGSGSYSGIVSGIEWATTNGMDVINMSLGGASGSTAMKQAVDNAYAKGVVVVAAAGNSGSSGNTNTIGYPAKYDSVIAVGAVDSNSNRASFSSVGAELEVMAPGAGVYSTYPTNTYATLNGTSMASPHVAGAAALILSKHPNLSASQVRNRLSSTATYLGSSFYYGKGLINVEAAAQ
Experimental: (§1) Nucleophile screening for alcalase, proleather or lipase AP 12 catalyzed deacetylation of SOA. A scintillation vial was charged successively with 100 mg of powdered enzyme prepared as described, 1.0 ml of 20 mM sucrose octaacetate (SOA) and 200 mM of the nucleophile dissolved in diisopropyl ether. Following a 5 sec sonication, the vial was incubated in a controlled-temperature shaker at 45° C. and 300 RPM for 66 hrs. A 200 μl aliquot of the reaction mixture was withdrawn and centrifuged. The supernatant was collected and evaporated under a stream of N2. The residue was reconstituted in 200 μl of acetonitrile and 10 μl of this solution was analyzed by HPLC. For screening concentration effects on enzyme activity, the same protocol was followed except the nucleophile concentration was varied from 0 to 2000 mM.

[2] = tested on: lipase AP 12; assay: Nucleophile screening for lipase AP 12 catalyzed deacetylation of SOA in diisopropyl ether; format: biochemical, Aspergillus niger; conditions: lipase AP 12, nucleophile 200 mM, 66 hrs
Experimental: as §1

[3] = tested on: proleather; assay: Nucleophile screening for proleather catalyzed deacetylation of SOA in diisopropyl ether; format: biochemical, Bacillus subtilis; conditions: nucleophile 200 mM; for % conv: 66 hrs; for regiochem: peak height ratio 1'-OH / 6'-OH heptaacetate
Experimental: as §1

[4] = n-octanol/water, cited from earlier work
[5] = tested on: lipase AY 30 deposited on Hyflo Super Cell; assay: Solvent effect on lipase AY 30 deposited on Hyflo Super Cell catalyzed deacetylation of SOA; format: biochemical, Candida cylindracea; conditions: immobilized lipase AY 30, 24 hrs
Experimental: (§2) Alcalase and lipase AY 30 were deposited on Hyflo Super Cell and used as catalysts for SOA deacetylation reactions in several anhydrous solvents.
(§3) Enzyme immobilization. The pH of a solution of 900 mg of buffered alcalase in 18 ml of water was adjusted to 9.0 with dilute NaOH. Hyflo super cell (6 g) was added and the slurry thoroughly mixed. […] Lipase AY 30 was immobilized in the same manner except that the protein solution was adjusted to pH 7.0 with sodium phosphate.
(§4) Enzyme and Solvent Screening for SOA Deacetylation. A scintillation vial was charged successively with 100 mg of powdered enzyme as received or prepared as described and 1.0 ml of 20 mM sucrose octaacetate (SOA) dissolved in an organic solvent. Following a 5 sec sonication, the vial was incubated in a controlled-temperature shaker at 45° C. and 300 RPM for 24 hrs. A 200 μl aliquot of the reaction mixture was withdrawn and centrifuged. The supernatant was collected and evaporated under a stream of N2. The residue was reconstituted in 200 μl of acetonitrile and 10 μl of this solution was analyzed by HPLC.

[6] = tested on: alcalase deposited on Hyflo Super Cell; assay: Solvent effect on alcalase deposited on Hyflo Super Cell catalyzed deacetylation of SOA; format: biochemical, Bacillus licheniformis; conditions: immobilized alcalase, 4 hour incubation; for SheptaA: total of 1'-OH and 6'-OH heptaacetates
Experimental: as §2, §3
as §4, with “Following a 5 sec sonication, the vial was incubated in a controlled-temperature shaker at 45° C. and 300 RPM for 24 hrs.” left out

[7] = tested on: proleather; assay: Solvent effect on proleather catalyzed deacetylation of SOA; format: biochemical, Bacillus subtilis; conditions: 24 hrs; for SheptaA: total of 1'-OH and 6'-OH heptaacetates; for SOA / ShexaA: solvent as labelled
Experimental: (§5) Identical enzyme catalyzed SOA deacetylations were run in numerous anhydrous solvents. After 24 hrs incubation an aliquot was analyzed by HPLC.
(§6) The pH of commercial powdered enzymes was adjusted in the following way: The enzyme (3 g) was dissolved in 25 ml of an appropriate buffer and the pH adjusted with dilute NaOH or citric/phosphoric acid solution. Cold acetone (37.5 ml at -20° C.) was added and the precipitate collected on a medium porosity glass funnel and dried overnight at 2 millitorr. The protein pellet was ground to a fine powder and equilibrated at 4° C. over saturated aqueous potassium carbonate (RH: 43%) for 24 hrs.
as §4

[8] = target: T1, alcalase; assay: Solvent effect on alcalase catalyzed deacetylation of SOA; format: biochemical; conditions: 24 hrs; for SheptaA: total of 1'-OH and 6'-OH heptaacetates; for SOA / ShexaA: solvent as labelled
Experimental: as §5
Enzyme Precipitation. Alcalase was prepared by adding 37.5 ml cold acetone (-20° C.) to 25 ml of alcalase solution as supplied by Novo. The aqueous acetone was decanted and the residue dissolved in 25 ml of pH 9.0 glycine--NaOH buffer. The pH of this solution was adjusted to 9.0 with a few drops of dilute NaOH solution. Cold acetone (37.5 ml at -20° C.) was added to the buffered alcalase solution and the precipitate collected by filtration on a medium porosity glass funnel and dried overnight at 2 millitorr. The resulting pellet was ground to a fine powder and stored at 4° C. over saturated aqueous potassium carbonate (RH: 43%) for 24 hrs.
as §4

[9] = tested on: lipase AY 30; assay: Effect of the solvent on lipase AY 30 SOA deacetylation; format: biochemical, Candida cylindracea; conditions: lipase AY 30, solvent as labelled, 24 hrs
Experimental: as §5, §4

[10] = tested on: lipase AP 12; assay: Solvent effect on lipase AP 12 catalyzed deacetylation of SOA; format: biochemical, Aspergillus niger; conditions: lipase AP 12, solvent as labelled, 24 hrs
Experimental: as §5, §6, §4

[11] = tested on: lipase AY 30; assay: Effect of the solvent on lipase AY 30 catalyzed deacylation of SOP; format: biochemical, Candida cylindracea; for SheptaP's ([…]): HPLC peak 8.2 min
Experimental: Identical SOP deacylations were performed with lipase AY 30 or protease type XXIII in numerous anhydrous organic solvents, as shown in Tables 12 and 13.
as §4, with “Solvent” for “Enzyme and Solvent”, “screening” for “Screening”, “SOP deacylation.” for “SOA Deacetylation.”, “lipase AY 30” for “powdered enzyme as received”, “protease type XXIII” for “prepared”, “octapropionate (SOP) and 200mM butanol” for “octaacetate (SOA)”

For `OCCC1CCCCN1` (stereo not drawn) [2-piperidineethanol], the regiochem [1] was 8.6, the “% conv” value [2] was 10.4% and the “% conv” value [3] was 41.3%. For the same compound, the regiochem [3] was 5.1.

For `ClC(Cl)(Cl)Cl` [CCl4, carbon tetrachloride], the “log P” value ([4]; from Laane et al.) is listed as 3.0 and 3.1, the SOA [5] is listed as 97.5% and the SheptaA [5] is listed as 2.5%. For the same compound, the SOA [6] was 98.6%, the ShexaA [6] was 0% and the SheptaA [6] was 1.4%. The SheptaA [7] was 9.6%, the SOA [7] was 89.1% and the ShexaA [7] was 1.3%. The SheptaA [8] was 5.2%, the SOA [8] was 94.8% and the ShexaA [8] was 0%. For the same compound, the SOA [9] was 86.9%, the SheptaA [9] was 10.4% and the ShexaA [9] was 2.7%. For the same compound, the SOA [10] was 95.1%, the SheptaA [10] was 4.3% and the ShexaA [10] was 0.6%. The “ShexaP (4.2 min)” value ([11]; lipase AY 30, 24 hrs, HPLC peak 4.2 min) was 0%, the “SheptaP's (8.9 min)” value ([11]; lipase AY 30, 24 hrs, HPLC peak 8.9 min) was 0% and the “SheptaP's (9.4 min)” value ([11]; lipase AY 30, 24 hrs, HPLC peak 9.4 min) was 0.7%. For the same compound, the “SheptaP's ([…])” value ([11]; lipase AY 30, 24 hrs, HPLC peak […]) was 1.1% and the SOA ([11]; lipase AY 30, solvent as labelled, 200 mM butanol, 24 hrs, peak 21.4 min) was 98.2%.

For `COc1ccccc1` [anisole], the “log P” value [4] is given as 2.1, the SOA [5] is given as 98.2% and the SheptaA [5] is given as 1.2%. For the same compound, the SOA [6] was 98.0%, the ShexaA [6] was 0% and the SheptaA [6] was 2.0%. It also gave a SheptaA [7] of 19.4%, an SOA [7] of 79.2% and a ShexaA [7] of 1.4%. It also gave a SheptaA [8] of 3.9%, an SOA [8] of 96.1% and a ShexaA [8] of 0%. The SOA [9] was 86.1%, the SheptaA [9] was 9.6% and the ShexaA [9] was 4.3%. It also gave an SOA [10] of 96.2%, a SheptaA [10] of 3.8% and a ShexaA [10] of 0%.

With `OCc1ccccc1` [benzyl alcohol] the regiochem [1] was 8.1, the “% conv” value [2] was 22.5% and the “% conv” value [3] was 46.8%. For the same compound, the regiochem [3] was 6.6.

For `CCCCO` [butanol, n-butanol], the regiochem [1] was 7.4, the “% conv” value [2] was 25.7% and the “% conv” value [3] was 44.4%. It also gave a regiochem [3] of 4.8.

For `OCC1CCCCC1` [cyclohexylmethanol], the regiochem [1] was 8.1, the “% conv” value [2] was 24.8% and the “% conv” value [3] was 42.8%. It also gave a regiochem [3] of 4.4.
